These are literature values, as cited in paper PMC6172068 (Cancer Science, 2018).

Series [1] deals with AML. The note with it: single agent; cited from earlier work.
The subject of series [2] is FLT3 mutation-positive R/R AML. The note with it: cited from earlier work.
Series [3] concerns AML. The note with it: sorafenib plus intensive chemotherapy, patients aged <60 years; cited from earlier work.

On to `CO[C@@H]1[C@H](N(C)C(=O)c2ccccc2)C[C@H]2O[C@]1(C)n1c3ccccc3c3c4c(c5c6ccccc6n2c5c31)C(=O)NC4` [midostaurin], for which, in the series with AML [1], the CR result is given as “not achieved”.
Consider `CC1(COc2ccc3c(c2)ncn3-c2ccc3cccc(N4CCC(N)CC4)c3n2)COC1` [crenolanib], for which, in series [2], the antileukemic activity result was “strong antileukemic activity”.
With `CNC(=O)c1cc(Oc2ccc(NC(=O)Nc3ccc(Cl)c(C(F)(F)F)c3)cc2)ccn1` [sorafenib], the “3-year event-free survival rate” value in the series with AML [3] is given as 40%.
